From patent publication US20060106207A1, “Nucleotide sequences that encode deregulated phosphoglycerate dehydrogenases of coryneform bacteria and method for producing l-serine” (Forschungszentrum Julich GMBH, priority 2002, published 2006)

B1: serAΔ197: serA allele coding for PGD with deletion of 197 C-terminal amino acids, SEQ ID No. 1 / 7 (protein, listed as Corynebacterium glutamicum)
chain: MSQNGRPVVLIADKLAQSTVDALGDAVEVRWVDGPNRPELLDAVKEADALLVRSATTVDAEVIAAAPNLKIVGRAGVGLDNVDIPAATEAGVMVANAPTSNIHSACEHAISLLLSTARQIPAADATLREGEWKRSSFNGVEIFGKTVGIVGFGHIGQLFAQRLAAFETTIVAYDPYANPARAAQLNVELVELDELMSRSDFVTIHLPKTKETAGMFDAQLLAKSKKGQIIINAARGGLVDEQALADAIESGHIRGAGFDVYSTEPCTDSPLFKLPQVVVTPHLGASTEEAQDRAGTDVADSVLKALAGEFVADAVNVSGGRVGEEVAVWMDLA

Tests used:
Format in all cases: biochemical, Corynebacterium glutamicum
[1] = tested on: overexpressed 3-phosphoglycerate-dehydrogenase in strain 13032pZ1serA; assay: Inhibition of the overexpressed 3-phosphoglycerate-dehydrogenase by L-serine in strain 13032pZ1serA; details: 10 mM L-serine, 5 minutes of incubation at 30° C.
Description: (§1) The cells were harvested in the exponential growth phase at OD600 of 5 to 8 and washed twice in 100 mM Tris-HCl, pH 7.5. The cell pellets were then frozen at −20° C. until disintegration. The frozen cell pellets were moisturized on ice and resuspended with 2 ml cold Tris-HCl pH 7.5/10% glycerine in a Brenson sonifier for 10 minutes. Then the cell fragments were separated by centrifugation at 13000 rpm and 4° C. in a Sigma -202 MK centrifuge. The thus obtained supernatant is desalted as a raw extract initially on a PD-10 column using the conditions set by the manufacturer (Amersham Pharmacia Biotech) and then immediately subjected to enzyme measurement. The enzyme test relied upon the photometric detection of the formation of NADH in the reaction of 3-phosphoglycerate and NAD to NADH.
(§2) In the following tests were made whether the C-terminus foreshortened mutant serAΔ197 was no longer blocked by L-serine. For that purpose initially the inhibition of the 3-phosphoglycerate-dehydrogenase of the wild type was investigated in cell-free extracts of C. glutamicum by L-serine based upon the above described enzyme tests. For that purpose to the test bath were added 1, 5 and 10 mM L-serine and were incubated for 5 minutes at 30° C. The reaction was then started by the addition of 15 mM […]. […]

[2] = tested on: C-terminal foreshortened 3-phosphoglycerate-dehydrogenase mutant (serAΔ197) in strain 13032pZ1serAΔ197; assay: Inhibition of the overexpressed 3-phosphoglycerate-dehydrogenase by L-serine in strain 13032pZ1serAΔ197
Description: as §1, §2

[3] = tested on: Wild Type 3-Phosphoglycerate-Dehydrogenase of C. glutamicum; assay: Inhibition of wild type 3-phosphoglycerate-dehydrogenase by L-serine in cell-free extracts
Description: as §1
In the following tests were made whether the C-terminus foreshortened mutant serAΔ197 was no longer blocked by L-serine. For that purpose initially the inhibition of the 3-phosphoglycerate-dehydrogenase of the wild type was investigated in cell-free extracts of C. glutamicum by L-serine based upon the above described enzyme tests. For that purpose to the test bath were added 1, 5 and 10 mM L-serine and were incubated for 5 minutes at 30° C. The reaction was then started by the addition of 15 mM […]. The incubation was necessary in order to be able to detect an inhibition (Table 4). This time dependency of the L-serine inhibition which required several minutes of incubation before a constant level of inhibition was reached has also been described for other 3-phosphoglycerate-dehydrogenase, for example for the purified enzyme of B. subtilis (Saski R. and Pitzer L., 1975, Eur. J. Biochem., 51:415-427).

[4] = tested on: 3-phosphoglycerate-dehydrogenase; assay: 3-phosphoglycerate-dehydrogenase enzyme test of strains overexpressing serA or shortened serA alleles
Description: The plasmids pziserA, pZiserAΔ79, pZiserAΔ188), pZiserAΔ197, pZiserAΔ205 and pZiserAΔ211 were introduced by electroporation individually into C. glutamicum. As a control, the media plasmid pZ1 was also electroporated into C. glutamicum ATCC 13032. The thus obtained strains 13032pZ1, 13032pZ1serA, 13032pZiserAΔ79, 13032pZiserAΔ188, 13032pZiserAΔ197, 13032pZiserAΔ205 and 13032pZiserAΔ211 were analyzed for overexpression of the 3-phosphoglycerate-dehydrogenase by means of is the 3-phosphoglycerate-dehydrogenase enzyme test. For this purpose the […] strains were activated in complex medium (CgIII=2.5 g NaCl, 10 g bacto-peptone, 10 g bacto-yeast extract, pH 7.4 with 2% glucose) and the minimal medium CGXII and each was separately seeded from the preculture. The medium was identical with the medium CGXII described by Keilhauer et al (Journal of Bacteriology (1993) 175: 5593-5603) but containing additionally 25 μg/mL of kanamycin.
The cells were harvested in the exponential growth phase at OD600 of 5 to 8 and washed twice in 100 mM Tris-HCl, pH 7.5. The cell pellets were then frozen at −20° C. until disintegration. […]
With these test results a specific activity of about 150 mU/mg protein can be determined for the wild-type 3-phosphoglycerate-dehydrogenase activity. […]

Molecule | Relative 3-Phosphoglycerate-Dehydrogenase Activity [1] | L-serine inhibition of the foreshortened mutant (in words) [2] | Relative 3-Phosphoglycerate-Dehydrogenase Activity ([2]; 10 mM L-serine, 5 minutes of incubation at 30° C.) | Relative 3-Phosphoglycerate-Dehydrogenase Activity ([3]; 1 mM L-serine, 5 minute incubation at 30° C.) | Relative 3-Phosphoglycerate-Dehydrogenase Activity ([3]; 1 mM L-serine, without incubation) | Relative 3-Phosphoglycerate-Dehydrogenase Activity ([3]; 5 mM L-serine, 5 minute incubation at 30° C.) | Relative 3-Phosphoglycerate-Dehydrogenase Activity ([3]; 5 mM L-serine, without incubation) | Relative 3-Phosphoglycerate-Dehydrogenase Activity ([3]; 10 mM L-serine, 5 minute incubation at 30° C.) | Relative 3-Phosphoglycerate-Dehydrogenase Activity ([3]; 10 mM L-serine, without incubation) | share of the wild type activity ([4]; compared with overexpressed wild type) | overexpression / increase in specific 3-phosphoglycerate-dehydrogenase activity ([4]; with respect to the wild type protein)
N[C@@H](CO)C(=O)O [L-Serine, L-serine] | 34% | no longer was significantly limited | 95% | 96% | 106% | 82% | 112% | 56% | 104% |  | 
B1 |  |  |  |  |  |  |  |  |  | more than 60% | 10 fold
